From US9328122B2, “7-substituted Hanfangichin B derivative, and preparation method and use thereof” (HANGZHOU BENSHENG PHARMACEUTICAL CO., LTD., priority 2012, dated 2016)
Converted amounts (≈) assume the structure as drawn.

Tests used:
[1] = test system: RPMI 8226 (multiple myeloma) cells; test: MTT cell growth inhibition, multiple myeloma cells; assay type: cell-based, human; settings: Homo sapiens, RPMI 8226, 72 h, MTT
Procedure: Myeloma cell lines: RPMI8226 (multiple myeloma), purchased from Fuxiang Bio-tech Co. Ltd., Shanghai, China.
(§1) 6000 well-growing cells were obtained and inoculated into wells of a 96-well cell culture plate. The culture medium was a RPMI-1640 cell culture medium containing 10% fetal bovine serum. After adding the 7-substituted fangchinoline derivatives of different concentrations the next day and mixing uniformly, the plate was placed in a carbon dioxide cell incubator (5% CO2) at 37° C. and incubated for 72 hours. Then the viable cell concentration was determined by the MTT method.

[2] = test system: U87-MG (malignant glioma) cells; test: MTT cell growth inhibition, solid tumor cells; assay type: cell-based; settings: Homo sapiens, U-87 MG, U87-MG, 72 h, MTT
Text: (§2) Hep-2 (laryngeal carcinoma), A549 (human lung cancer), CaES-17 (esophageal cancer cell), PC-3 (prostate cancer), CNE (nasopharyngeal carcinoma cell) and SK-OV-3 (ovarian cancer cell), all of which were purchased from China Center For Type Culture Collection; RKO (human colon adenocarcinoma cell), MGC-803 (human gastric cancer cell), MG-63 (osteosarcoma), and U87-MG (malignant glioma cell), all of which were purchased from Fuxiang Bio-tech Co. Ltd., Shanghai, China; PANC-1 (pancreatic cancer), Becap37 (human breast cancer cell), Hela (human cervical cancer cell) and Hep G2 (human liver cancer cell), all of which were donated by Cancer Research Institute of Zhejiang University, China.
as §1, with “well-growing human solid tumor” for “well-growing”, “DMEM High Glucose” for “a RPMI-1640”, “serum. The plate was placed in a carbon dioxide cell incubator (5% CO2) at 37° C. and incubated for 24 hours.” for “serum.”, “added with” for “adding the”, “concentration” for “concentrations the next day”

[3] = test system: Hep G2 (human liver cancer) cells; test: MTT cell growth inhibition, solid tumor cells; assay type: cell-based; settings: Homo sapiens, HepG2, Hep G2, 72 h, MTT
Text: as §2
as §1, with “well-growing human solid tumor” for “well-growing”, “DMEM High Glucose” for “a RPMI-1640”, “serum. The plate was placed in a carbon dioxide cell incubator (5% CO2) at 37° C. and incubated for 24 hours.” for “serum.”, “added with” for “adding the”, “concentration” for “concentrations the next day”

[4] = test system: RKO (human colon adenocarcinoma) cells; test: MTT cell growth inhibition, solid tumor cells; assay type: cell-based; settings: Homo sapiens, RKO, 72 h, MTT
Text: as §2
as §1, with “well-growing human solid tumor” for “well-growing”, “DMEM High Glucose” for “a RPMI-1640”, “serum. The plate was placed in a carbon dioxide cell incubator (5% CO2) at 37° C. and incubated for 24 hours.” for “serum.”, “added with” for “adding the”, “concentration” for “concentrations the next day”

[5] = test system: A549 (human lung cancer) cells; test: MTT cell growth inhibition, solid tumor cells; assay type: cell-based; settings: Homo sapiens, A549, 72 h, MTT
Text: as §2
as §1, with “well-growing human solid tumor” for “well-growing”, “DMEM High Glucose” for “a RPMI-1640”, “serum. The plate was placed in a carbon dioxide cell incubator (5% CO2) at 37° C. and incubated for 24 hours.” for “serum.”, “added with” for “adding the”, “concentration” for “concentrations the next day”

[6] = test system: MG-63 (osteosarcoma) cells; test: MTT cell growth inhibition, solid tumor cells; assay type: cell-based; settings: Homo sapiens, MG-63, 72 h, MTT
Text: as §2
as §1, with “well-growing human solid tumor” for “well-growing”, “DMEM High Glucose” for “a RPMI-1640”, “serum. The plate was placed in a carbon dioxide cell incubator (5% CO2) at 37° C. and incubated for 24 hours.” for “serum.”, “added with” for “adding the”, “concentration” for “concentrations the next day”

[7] = test system: MGC-803 (human gastric cancer) cells; test: MTT cell growth inhibition, solid tumor cells; assay type: cell-based; settings: MGC-803, 72 h, MTT
Text: as §2
as §1, with “well-growing human solid tumor” for “well-growing”, “DMEM High Glucose” for “a RPMI-1640”, “serum. The plate was placed in a carbon dioxide cell incubator (5% CO2) at 37° C. and incubated for 24 hours.” for “serum.”, “added with” for “adding the”, “concentration” for “concentrations the next day”

[8] = test system: Hep-2 (laryngeal carcinoma) cells; test: MTT cell growth inhibition, solid tumor cells; assay type: cell-based; settings: Homo sapiens, Hep-2, 72 h, MTT
Text: as §2
as §1, with “well-growing human solid tumor” for “well-growing”, “DMEM High Glucose” for “a RPMI-1640”, “serum. The plate was placed in a carbon dioxide cell incubator (5% CO2) at 37° C. and incubated for 24 hours.” for “serum.”, “added with” for “adding the”, “concentration” for “concentrations the next day”

[9] = test system: Becap-37 (human breast cancer) cells; test: MTT cell growth inhibition, solid tumor cells; assay type: cell-based; settings: Homo sapiens, Becap-37, 72 h, MTT
Text: as §2
as §1, with “well-growing human solid tumor” for “well-growing”, “DMEM High Glucose” for “a RPMI-1640”, “serum. The plate was placed in a carbon dioxide cell incubator (5% CO2) at 37° C. and incubated for 24 hours.” for “serum.”, “added with” for “adding the”, “concentration” for “concentrations the next day”

[10] = test system: Hela (human cervical cancer) cells; test: MTT cell growth inhibition, solid tumor cells; assay type: cell-based; settings: Homo sapiens, Hela, 72 h, MTT
Text: as §2
as §1, with “well-growing human solid tumor” for “well-growing”, “DMEM High Glucose” for “a RPMI-1640”, “serum. The plate was placed in a carbon dioxide cell incubator (5% CO2) at 37° C. and incubated for 24 hours.” for “serum.”, “added with” for “adding the”, “concentration” for “concentrations the next day”

[11] = test system: Kasumi-1 (acute myeloid leukemia M2 type) cells; test: MTT cell growth inhibition, leukemia cells; assay type: cell-based, human; settings: Homo sapiens, Kasumi-1, 72 h, MTT
Text: (§3) Leukemia cell lines: leukemia cell lines: K562adr (drug-resistant, chronic myeloid leukemia, CML), NB4 (acute promyelocytic leukemia, AML), Kasumi-1 (acute myeloid leukemia M2 type, AML-M2), Jurkat (acute lymphoblastic leukemia, ALL), all of which were donated by Cancer Research Institute of Zhejiang University, China; and H9 (acute lymphoblastic leukemia, ALL), which was purchased from China Center for Type Culture Collection.
(§4) Reagents: The standard sample of fangchinoline (FAN) was purchased from Ci Yuan Biotechnology Co., Ltd., Shaanxi, China; and the 7-substituted fangchinoline derivatives according to the present invention.
as §1, with “well-growing leukemia” for “well-growing”, “incubating” for “incubated”

[12] = test system: Jurkat (acute lymphoblastic leukemia) cells; test: MTT cell growth inhibition, leukemia cells; assay type: cell-based, human; settings: Homo sapiens, Jurkat, 72 h, MTT
Text: as §3, §4
as §1, with “well-growing leukemia” for “well-growing”, “incubating” for “incubated”

[13] = test system: CNE (nasopharyngeal carcinoma) cells; test: MTT cell growth inhibition, solid tumor cells; assay type: cell-based, human; settings: Homo sapiens, CNE, 72 h, MTT
Text: as §2
as §1, with “well-growing human solid tumor” for “well-growing”, “DMEM High Glucose” for “a RPMI-1640”, “serum. The plate was placed in a carbon dioxide cell incubator (5% CO2) at 37° C. and incubated for 24 hours.” for “serum.”, “added with” for “adding the”, “concentration” for “concentrations the next day”

[14] = test system: PC-3 (prostate cancer) cells; test: MTT cell growth inhibition, solid tumor cells; assay type: cell-based, human; settings: Homo sapiens, PC-3, 72 h, MTT
Text: as §2
as §1, with “well-growing human solid tumor” for “well-growing”, “DMEM High Glucose” for “a RPMI-1640”, “serum. The plate was placed in a carbon dioxide cell incubator (5% CO2) at 37° C. and incubated for 24 hours.” for “serum.”, “added with” for “adding the”, “concentration” for “concentrations the next day”

[15] = test system: SK-OV-3 (ovarian cancer) cells; test: MTT cell growth inhibition, solid tumor cells; assay type: cell-based, human; settings: Homo sapiens, SK-OV-3, 72 h, MTT
Text: as §2
as §1, with “well-growing human solid tumor” for “well-growing”, “DMEM High Glucose” for “a RPMI-1640”, “serum. The plate was placed in a carbon dioxide cell incubator (5% CO2) at 37° C. and incubated for 24 hours.” for “serum.”, “added with” for “adding the”, “concentration” for “concentrations the next day”

[16] = test system: CaEs-17 (esophageal cancer) cells; test: MTT cell growth inhibition, solid tumor cells; assay type: cell-based, human; settings: Homo sapiens, CaEs17, CaEs-17, 72 h, MTT
Text: as §2
as §1, with “well-growing human solid tumor” for “well-growing”, “DMEM High Glucose” for “a RPMI-1640”, “serum. The plate was placed in a carbon dioxide cell incubator (5% CO2) at 37° C. and incubated for 24 hours.” for “serum.”, “added with” for “adding the”, “concentration” for “concentrations the next day”

[17] = test system: PANC-1 (pancreatic cancer) cells; test: MTT cell growth inhibition, solid tumor cells; assay type: cell-based, human; settings: Homo sapiens, PANC-1, 72 h, MTT
Text: as §2
as §1, with “well-growing human solid tumor” for “well-growing”, “DMEM High Glucose” for “a RPMI-1640”, “serum. The plate was placed in a carbon dioxide cell incubator (5% CO2) at 37° C. and incubated for 24 hours.” for “serum.”, “added with” for “adding the”, “concentration” for “concentrations the next day”

tumor = test: Antitumor activity compared with fangchinoline, overall statement; assay type: cell-based; settings: tumor type not specified

IC50 ([1]; read-out: IC50): 0.12 µg/mL (≈ 0.185 µM)
IC90 ([1]; read-out: IC90): 0.5 µg/mL (≈ 0.771 µM)
IC50 ([2]; read-out: IC50): 1.85 µg/mL (≈ 2.85 µM)
IC90 ([2]; read-out: IC90): 9.23 µg/mL (≈ 14.2 µM)
IC50 ([3]; read-out: IC50): 2.12 µg/mL (≈ 3.27 µM)
IC90 ([3]; read-out: IC90): 5.92 µg/mL (≈ 9.12 µM)
IC50 ([4]; read-out: IC50): 1.58 µg/mL (≈ 2.44 µM)
IC90 ([4]; read-out: IC90): 3.46 µg/mL (≈ 5.33 µM)
IC50 ([5]; read-out: IC50): 2.19 µg/mL (≈ 3.38 µM)
IC90 ([5]; read-out: IC90): 4.92 µg/mL (≈ 7.58 µM)
IC50 ([6]; read-out: IC50): 2.4 µg/mL (≈ 3.7 µM)
IC90 ([6]; read-out: IC90): 3.8 µg/mL (≈ 5.86 µM)
IC50 ([7]; read-out: IC50): 1.49 µg/mL (≈ 2.3 µM)
IC90 ([7]; read-out: IC90): 6.02 µg/mL (≈ 9.28 µM)
IC50 ([8]; read-out: IC50): 3.63 µg/mL (≈ 5.59 µM)
IC90 ([8]; read-out: IC90): 9.9 µg/mL (≈ 15.3 µM)
IC50 ([9]; read-out: IC50): 2.54 µg/mL (≈ 3.91 µM)
IC90 ([9]; read-out: IC90): 5.29 µg/mL (≈ 8.15 µM)
IC50 ([10]; read-out: IC50): 1.68 µg/mL (≈ 2.59 µM)
IC90 ([10]; read-out: IC90): 3.89 µg/mL (≈ 6 µM)
IC50 ([11]; read-out: IC50): 0.93 µg/mL (≈ 1.43 µM)
IC90 ([11]; read-out: IC90): 3.66 µg/mL (≈ 5.64 µM)
IC50 ([12]; read-out: IC50): 0.64 µg/mL (≈ 0.986 µM)
IC90 ([12]; read-out: IC90): 3.29 µg/mL (≈ 5.07 µM)
IC50 ([13]; read-out: IC50): 2.7 µg/mL (≈ 4.16 µM)
IC90 ([13]; read-out: IC90): 5.6 µg/mL (≈ 8.63 µM)
IC50 ([14]; read-out: IC50): 3.24 µg/mL (≈ 4.99 µM)
IC90 ([14]; read-out: IC90): 7.37 µg/mL (≈ 11.4 µM)
IC50 ([15]; read-out: IC50): 5 µg/mL (≈ 7.71 µM)
IC90 ([15]; read-out: IC90): 11.8 µg/mL (≈ 18.2 µM)
IC50 ([16]; read-out: IC50): 1.68 µg/mL (≈ 2.59 µM)
IC90 ([16]; read-out: IC90): 9.16 µg/mL (≈ 14.1 µM)
IC50 ([17]; read-out: IC50): 3.46 µg/mL (≈ 5.33 µM)
IC90 ([17]; read-out: IC90): 10.4 µg/mL (≈ 16 µM)
SMILES: C=CCOc1c(OC)cc2c3c1Oc1cc4c(cc1OC)CCN(C)[C@H]4Cc1ccc(cc1)Oc1cc(ccc1OC)C[C@@H]3N(C)CC2 [BS-FC-213]
antitumor activity compared with that of fangchinoline (tumor): significantly superior
